Values joined by “and” are separate entries in the source; they are usually repeats but may differ in a detail not shown here. Identical values can stand only once. In the oligonucleotide strings, read from the 5' end, every base follows the letter of its sugar. An asterisk marks phosphorothioate; unmarked linkages are phosphodiester. Other units and linkages are bracketed, terminal groups are in braces. A string of capitals states the bases alone. e = 2'-O-(2-methoxyethyl) (MOE); [5mC] = 5-methylcytosine; d = 2'-deoxy (DNA)
Test system: human TGF-beta1 mRNA
Test: Antisense inhibition of human TGF-beta1 mRNA in HuVEC cells, single 10 nM dose, Lipofectamine 2000 (Example 2)
Assay type: cell-based
Conditions: for % inhibition: 10 nM oligonucleotide, HuVEC, relative to untreated control cells, gapmers targeted to SEQ ID NO: 1; for inhibition of a TGF-beta1 mRNA: threshold lists of Oligo IDs, 10 nM
Protocol: Antisense oligonucleotides targeted to a TGF-beta1 nucleic acid were tested for their effects on TGF-beta1 mRNA in vitro. Cultured HuVEC cells at a density of 5,000 cells per well were transfected using Lipofectamine™ 2000 reagent with 10 nM antisense oligonucleotide for 4 hours. After a recovery period of approximately 24 hours, RNA was isolated from the cells and TGF-beta1 mRNA levels were measured by quantitative real-time PCR. TGF-beta1 mRNA levels were adjusted according to total RNA content, as measured by RIBOGREEN®. Results are presented as percent inhibition of TGF-beta1, relative to untreated control cells.
The chimeric antisense oligonucleotides in Tables 1 and 2 were designed as 2-13-5 MOE gapmers. Antisense molecules with this motif targeting TGF-beta1 are unique, and represent a novel chemical structure for an ASO directed against this target. The gapmers are 20 nucleotides in length, wherein the central gap segments are comprised of thirteen 2′-deoxynucleotides and are flanked on the 5′ side by wings comprising two nucleotides each and on the 3′ side by wings comprising five nucleotides each. Each nucleotide in the 5′ wing segment and each nucleotide in the 3′ wing segment has a 2′-MOE modification. The internucleoside linkages throughout each gapmer are phosphorothioate (P═S) linkages. All cytosine residues throughout each gapmer are 5-methylcytosines. “Target start site” indicates the 5′-most nucleotide to which the gapmer is targeted. “Target stop site” indicates the 3′-most nucleotide to which the gapmer is targeted. Each gapmer listed in Table 1 is targeted to SEQ ID NO: 1 (GENBANK Accession No. NM_000660.3). Each gapmer listed in Table 2 is targeted to SEQ ID NO: 2 (GENBANK Accession No. NT 011109.15 truncated from 14103000 to […]).

| Substance | % inhibition | inhibition of a TGF-beta1 mRNA |
| --- | --- | --- |
| 413967 (antisense eG*eA*dT*dG*dG*d[5mC]*d[5mC]*d[5mC]*dA*dG*dG*dG*d[5mC]*dG*d[5mC]*eG*eA*eA*eG*eG) [compound 413967] | 64% | 60% |
| 413968 (antisense eG*eA*dG*dA*dT*dG*dG*d[5mC]*d[5mC]*d[5mC]*dA*dG*dG*dG*d[5mC]*eG*e[5mC]*eG*eA*eA) [compound 413968] | 55% | – |
| 413969 (antisense e[5mC]*eG*dA*d[5mC]*dT*d[5mC]*d[5mC]*dT*dT*d[5mC]*d[5mC]*dT*d[5mC]*d[5mC]*dG*e[5mC]*eT*e[5mC]*e[5mC]*eG) [compound 413969] | 53% | – |
| 413971 (antisense eG*eG*d[5mC]*d[5mC]*dT*d[5mC]*dA*dG*dG*d[5mC]*dT*dG*d[5mC]*dT*d[5mC]*e[5mC]*eT*e[5mC]*eG*eG) [compound 413971] | 78% | 60% and 65% and 70% and 75% |
| 413972 (antisense e[5mC]*eT*d[5mC]*dG*dT*d[5mC]*d[5mC]*d[5mC]*dT*d[5mC]*d[5mC]*dT*d[5mC]*d[5mC]*d[5mC]*eG*e[5mC]*eT*e[5mC]*e[5mC]) [compound 413972] | 61% | 60% |
| 413973 (antisense e[5mC]*eA*dA*d[5mC]*dG*dG*dA*dA*dA*dA*dG*dT*d[5mC]*dT*d[5mC]*eA*eA*eA*eA*eG) [compound 413973] | 25% | – |
| 413974 (antisense eG*eG*d[5mC]*dA*dA*d[5mC]*dG*dG*dA*dA*dA*dA*dG*dT*d[5mC]*eT*e[5mC]*eA*eA*eA) [compound 413974] | 69% | 60% and 65% |
| 413975 (antisense eG*e[5mC]*dG*dG*d[5mC]*dA*dA*d[5mC]*dG*dG*dA*dA*dA*dA*dG*eT*e[5mC]*eT*e[5mC]*eA) [compound 413975] | 73% | 60% and 65% and 70% |
| 413976 (antisense e[5mC]*eA*dG*d[5mC]*dG*dG*d[5mC]*dA*dA*d[5mC]*dG*dG*dA*dA*dA*eA*eG*eT*e[5mC]*eT) [compound 413976] | 72% | 60% and 65% and 70% |
| 413977 (antisense e[5mC]*e[5mC]*d[5mC]*dA*dG*d[5mC]*dG*dG*d[5mC]*dA*dA*d[5mC]*dG*dG*dA*eA*eA*eA*eG*eT) [compound 413977] | 57% | – |
| 413978 (antisense e[5mC]*eT*d[5mC]*d[5mC]*d[5mC]*dA*dG*d[5mC]*dG*dG*d[5mC]*dA*dA*d[5mC]*dG*eG*eA*eA*eA*eA) [compound 413978] | 67% | 60% and 65% |
| 413980 (antisense e[5mC]*e[5mC]*dG*dG*d[5mC]*dT*d[5mC]*d[5mC]*d[5mC]*dA*dG*d[5mC]*dG*dG*d[5mC]*eA*eA*e[5mC]*eG*eG) [compound 413980] | 74% | 60% and 65% and 70% |
| 413981 (antisense e[5mC]*eT*d[5mC]*d[5mC]*dG*dG*d[5mC]*dT*d[5mC]*d[5mC]*d[5mC]*dA*dG*d[5mC]*dG*eG*e[5mC]*eA*eA*e[5mC]) [compound 413981] | 71% | 60% and 65% and 70% |
| 413983 (antisense eG*e[5mC]*dG*d[5mC]*d[5mC]*dT*d[5mC]*d[5mC]*dG*dG*d[5mC]*dT*d[5mC]*d[5mC]*d[5mC]*eA*eG*e[5mC]*eG*eG) [compound 413983] | 78% | 60% and 65% and 70% and 75% |
| 413984 (antisense e[5mC]*e[5mC]*dG*d[5mC]*dG*d[5mC]*d[5mC]*dT*d[5mC]*d[5mC]*dG*dG*d[5mC]*dT*d[5mC]*e[5mC]*e[5mC]*eA*eG*e[5mC]) [compound 413984] | 71% | 60% and 65% and 70% |
| 413985 (antisense e[5mC]*e[5mC]*d[5mC]*d[5mC]*dG*d[5mC]*dG*d[5mC]*d[5mC]*dT*d[5mC]*d[5mC]*dG*dG*d[5mC]*eT*e[5mC]*e[5mC]*e[5mC]*eA) [compound 413985] | 66% | 60% and 65% |
| 413986 (antisense eG*eT*d[5mC]*d[5mC]*d[5mC]*d[5mC]*dG*d[5mC]*dG*d[5mC]*d[5mC]*dT*d[5mC]*d[5mC]*dG*eG*e[5mC]*eT*e[5mC]*e[5mC]) [compound 413986] | 69% | 60% and 65% |
| 413987 (antisense eA*eG*dG*dT*d[5mC]*d[5mC]*d[5mC]*d[5mC]*dG*d[5mC]*dG*d[5mC]*d[5mC]*dT*d[5mC]*e[5mC]*eG*eG*e[5mC]*eT) [compound 413987] | 71% | 60% and 65% and 70% |

| Substance | % inhibition | inhibition of a TGF-beta1 mRNA |
| --- | --- | --- |
| 413988 (antisense eA*eA*dG*dT*d[5mC]*d[5mC]*dT*dG*d[5mC]*d[5mC]*dT*d[5mC]*d[5mC]*dT*d[5mC]*eG*e[5mC]*eG*eG*eG) [compound 413988] | 63% | 60% |
| 413989 (antisense eG*eG*d[5mC]*dA*dA*dA*dG*dG*dG*dA*dG*dG*d[5mC]*dG*dG*eT*e[5mC]*eT*eG*eG) [compound 413989] | 41% | – |
| 413990 (antisense eG*e[5mC]*dG*dG*d[5mC]*dA*dA*dA*dG*dG*dG*dA*dG*dG*d[5mC]*eG*eG*eT*e[5mC]*eT) [compound 413990] | 59% | – |
| 413991 (antisense e[5mC]*eG*dG*d[5mC]*dG*dG*d[5mC]*dA*dA*dA*dG*dG*dG*dA*dG*eG*e[5mC]*eG*eG*eT) [compound 413991] | 69% | 60% and 65% |
| 413992 (antisense e[5mC]*e[5mC]*d[5mC]*dG*dG*d[5mC]*dG*dG*d[5mC]*dA*dA*dA*dG*dG*dG*eA*eG*eG*e[5mC]*eG) [compound 413992] | 60% | 60% |
| 413993 (antisense eT*e[5mC]*d[5mC]*d[5mC]*d[5mC]*dG*dG*d[5mC]*dG*dG*d[5mC]*dA*dA*dA*dG*eG*eG*eA*eG*eG) [compound 413993] | 52% | – |
| 413994 (antisense e[5mC]*eG*dT*d[5mC]*d[5mC]*d[5mC]*d[5mC]*dG*dG*d[5mC]*dG*dG*d[5mC]*dA*dA*eA*eG*eG*eG*eA) [compound 413994] | 67% | 60% and 65% |
| 413995 (antisense e[5mC]*e[5mC]*d[5mC]*dG*dA*dG*dG*dG*d[5mC]*dT*dG*dG*dT*d[5mC]*d[5mC]*eG*eG*eA*eA*eT) [compound 413995] | 72% | 60% and 65% and 70% |
| 413996 (antisense eA*eA*dG*dT*d[5mC]*dT*dT*dT*dG*d[5mC]*dG*dG*dG*dA*dG*eG*e[5mC]*e[5mC]*eG*eG) [compound 413996] | 51% | – |
| 413997 (antisense eA*eA*dA*dA*dG*dT*d[5mC]*dT*dT*dT*dG*d[5mC]*dG*dG*dG*eA*eG*eG*e[5mC]*e[5mC]) [compound 413997] | 41% | – |
| 413998 (antisense eG*eG*dA*dA*dA*dA*dG*dT*d[5mC]*dT*dT*dT*dG*d[5mC]*dG*eG*eG*eA*eG*eG) [compound 413998] | 13% | – |
| 413999 (antisense eG*eG*d[5mC]*dT*d[5mC]*dA*dG*dG*dA*dG*dA*d[5mC]*dA*dG*dG*e[5mC]*e[5mC]*eG*eG*eG) [compound 413999] | 72% | 60% and 65% and 70% |
| 414000 (antisense eA*eA*dG*dG*dG*dT*d[5mC]*dT*dA*dG*dG*dA*dT*dG*d[5mC]*eG*e[5mC]*eG*eG*eG) [compound 414000] | 75% | 60% and 65% and 70% and 75% |
| 414001 (antisense e[5mC]*eA*dG*dG*dT*d[5mC]*dG*dG*dA*dG*dA*dG*dA*dG*dA*eT*e[5mC]*e[5mC]*eG*eT) [compound 414001] | 78% | 60% and 65% and 70% and 75% |
| 414002 (antisense eG*eG*dT*dG*dG*dG*dT*dG*dG*dT*d[5mC]*dT*dT*dG*dA*eA*eT*eA*eG*eG) [compound 414002] | 80% | 60% and 65% and 70% and 75% and 80% |
| 414003 (antisense eA*eA*dG*dG*dT*dG*dG*dG*dT*dG*dG*dT*d[5mC]*dT*dT*eG*eA*eA*eT*eA) [compound 414003] | 67% | 60% and 65% |
| 414004 (antisense eA*eG*dA*dA*dG*dG*dT*dG*dG*dG*dT*dG*dG*dT*d[5mC]*eT*eT*eG*eA*eA) [compound 414004] | 70% | 60% and 65% and 70% |
| 414005 (antisense e[5mC]*e[5mC]*dA*dG*dA*dA*dG*dG*dT*dG*dG*dG*dT*dG*dG*eT*e[5mC]*eT*eT*eG) [compound 414005] | 77% | 60% and 65% and 70% and 75% |
